From patent US20020010186A1, “Dihydropyrimidines and uses thereof” (Synaptic Pharmaceutical Corporation, priority 1996, published 2002)
Where a name gives a salt, the structure may show the parent alone. Blank lines part the entries; values can stand above or below the molecule they belong to.

Assays:
human α1D receptor = target: T1, human α1D receptor (Homo sapiens, UniProt P25100); test: Radioligand binding assay ([3H]prazosin) at cloned human α1D adrenergic receptor; conditions: membranes of LM(tk-) cells, [3H]prazosin 0.5 nM; for Ki: read-out: hα1d pKi (converted)
T1 sequence (P25100 1-572): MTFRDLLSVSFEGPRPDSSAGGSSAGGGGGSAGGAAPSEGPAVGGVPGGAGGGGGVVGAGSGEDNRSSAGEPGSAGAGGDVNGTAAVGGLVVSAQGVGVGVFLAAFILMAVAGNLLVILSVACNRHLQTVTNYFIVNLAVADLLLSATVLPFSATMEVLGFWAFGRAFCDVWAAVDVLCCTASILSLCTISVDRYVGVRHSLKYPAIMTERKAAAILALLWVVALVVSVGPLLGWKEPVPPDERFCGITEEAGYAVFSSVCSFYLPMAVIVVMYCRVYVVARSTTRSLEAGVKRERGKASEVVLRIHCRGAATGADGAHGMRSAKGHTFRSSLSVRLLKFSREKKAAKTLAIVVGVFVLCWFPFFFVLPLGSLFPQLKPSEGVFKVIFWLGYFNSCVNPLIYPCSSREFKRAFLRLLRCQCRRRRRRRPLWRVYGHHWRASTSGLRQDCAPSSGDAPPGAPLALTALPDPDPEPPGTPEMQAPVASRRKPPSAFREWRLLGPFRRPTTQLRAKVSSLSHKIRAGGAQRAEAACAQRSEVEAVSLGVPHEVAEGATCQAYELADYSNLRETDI
Experimental: (§1) These cell lines were prepared by transfecting the cloned cDNA or cloned genomic DNA or constructs containing both genomic DNA and cDNA encoding the human u-adrenergic receptors as follows:
The cells were grown, in a controlled environment ([…]., 5% CO2), as monolayers in Dulbecco's modified Eagle's Medium (GIBCO, Grand Island, N.Y.) containing 25 mM glucose and supplemented with 10% bovine calf serum, 100 units/ml penicillin g, and 100 μg/ml streptomycin sulfate.
(§2) The construct involved ligating three partial overlapping fragments: a 5′ 0.6 kb HincII genomic clone, a central 1.8 EcoRI hippocampal cDNA clone, and a 3′ 0.6Kb PstI genomic clone. The hippocampal cDNA fragment overlaps with the 5′ and 3′ genomic clones so that the HincII and PstI sites at the 5′ and 3′ ends of the cDNA clone, respectively, were utilized for ligation. This full-length clone was cloned into the KpnI site of the expression vector, using the 5′ and 3′ KpnI sites of the fragment, derived from vector (i.e., pBluescript) and 3′-untranslated sequences, respectively. Stable cell lines were selected as described above. […] Radioligand Binding Assays: Transfected cells from culture flasks were scraped into 5 ml of 5 mM Tris-HCl, 5 mM EDTA, pH 7.5, and lysed by sonication. The cell lysates were centrifuged at 1000 rpm for 5 min at 4° C., and the supernatant was centrifuged at 30,000×g for 20 min at 4° C. The pellet was suspended in 50 mM Tris-HCl, 1 mM MgCl2, and 0.1% ascorbic acid at pH 7.5. Binding of the al antagonist [^3H]prazosin (0.5 nM, specific activity 76.2 Ci/mmol) to membrane preparations of LM(tk-) cells was done in a final volume of 0.25 ml and incubated at 37° C. for 20 min. Nonspecific binding was determined in the presence of 10 μM phentolamine. The reaction was stopped by filtration through GF/B filters using a cell harvester.

human α1B receptor = target: T2, human α1B receptor (Homo sapiens, UniProt P35368); test: Radioligand binding assay ([3H]prazosin) at cloned human α1B adrenergic receptor; conditions: membranes of LM(tk-) cells, [3H]prazosin 0.5 nM; for Ki: read-out: hα1b pKi (converted)
T2 sequence (P35368 1-520): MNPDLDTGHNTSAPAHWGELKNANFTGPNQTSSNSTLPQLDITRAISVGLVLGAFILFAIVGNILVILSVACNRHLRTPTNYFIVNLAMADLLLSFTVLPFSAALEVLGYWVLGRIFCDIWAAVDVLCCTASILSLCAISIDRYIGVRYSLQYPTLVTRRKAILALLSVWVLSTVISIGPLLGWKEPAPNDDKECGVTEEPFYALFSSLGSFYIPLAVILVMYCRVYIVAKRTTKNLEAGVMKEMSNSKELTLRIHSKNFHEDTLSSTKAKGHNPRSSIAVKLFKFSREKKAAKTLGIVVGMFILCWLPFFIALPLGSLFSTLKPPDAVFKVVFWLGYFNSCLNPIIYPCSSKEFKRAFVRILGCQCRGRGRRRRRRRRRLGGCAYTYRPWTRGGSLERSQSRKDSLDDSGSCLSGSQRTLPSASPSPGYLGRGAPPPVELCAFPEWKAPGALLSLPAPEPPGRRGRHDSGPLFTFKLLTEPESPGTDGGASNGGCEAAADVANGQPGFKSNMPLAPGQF
Experimental: as §1
The construct involved ligating the full-length containing EcoRI brainstem cDNA fragment from λ ZapII into the expression vector. Stable cell lines were selected as described above.
as §2

human α1A receptor = target: T3, human α1A receptor (Homo sapiens, UniProt P35348); test: Radioligand binding assay ([3H]prazosin) at cloned human α1A adrenergic receptor; conditions: membranes of LM(tk-) cells, [3H]prazosin 0.5 nM; for Ki: read-out: hα1a pKi (converted)
T3 sequence (P35348 1-466): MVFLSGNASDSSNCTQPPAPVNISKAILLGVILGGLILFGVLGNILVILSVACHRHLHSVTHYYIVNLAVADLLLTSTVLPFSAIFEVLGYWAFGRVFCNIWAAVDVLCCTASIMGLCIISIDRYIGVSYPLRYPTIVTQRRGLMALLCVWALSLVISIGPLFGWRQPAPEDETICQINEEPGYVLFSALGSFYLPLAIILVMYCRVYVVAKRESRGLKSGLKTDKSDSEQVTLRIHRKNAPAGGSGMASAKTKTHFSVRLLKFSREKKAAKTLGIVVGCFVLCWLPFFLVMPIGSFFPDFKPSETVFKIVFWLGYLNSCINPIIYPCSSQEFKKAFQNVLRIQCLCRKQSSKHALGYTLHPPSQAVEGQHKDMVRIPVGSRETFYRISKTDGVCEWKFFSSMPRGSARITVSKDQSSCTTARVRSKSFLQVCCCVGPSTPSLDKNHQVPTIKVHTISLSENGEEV
Experimental: as §1, §2

- melting point: 170 to 174 °C
SMILES: COC(=O)C1=C(C)NC(=O)N(C(=O)NCCCN2CCC(c3ccccn3)CC2)C1c1ccc(F)c(F)c1 (centres unmarked) (as salt: hydrochloride) [Example 15, 6-(3,4-Difluorophenyl)-5-methoxycarbonyl-4-methyl-2-oxo-1-{N-[4-(2-pyridyl)-piperidine-1-yl]propyl}carboxamido-1,2,3,6-tetrahydropyrimidine Dihydrochloride]

- melting point: 153 to 155 °C
SMILES: COCC1=C(C(=O)OC)C(c2ccc(F)c(F)c2)N(C(=O)NCCCN2CCC(c3ccccc3)(c3ccco3)CC2)C(=O)N1 (centres unmarked)

SMILES: COC(=O)C1=C(C)N=C(C)N(CCCCCN2CCC(C(=O)OC)(c3ccccc3)CC2)C1c1ccc(F)c(F)c1 (centres unmarked) [Example 17, 6-(3,4-Difluorophenyl)-1,6-dihydro-5-methoxycarbonyl-1-(5-(4-methoxycarbonyl-4-phenylpiperidin-1-yl)-pentyl)-2,4-dimethylpyrimidine]
- hα1d pKi (human α1D receptor): 6.17
- hα1b pKi (human α1B receptor): 6.32

- Ki (human α1D receptor): 977 nM
- Ki (human α1B receptor): 468 nM
- Ki (human α1A receptor): 0.389 nM
SMILES: COC(=O)C1=C(C)NC(=O)N(C(=O)NCCCN2CCC(c3ccccn3)CC2)C1c1ccc(F)c(F)c1 (centres unmarked) [Example 15, 6-(3,4-Difluorophenyl)-5-methoxycarbonyl-4-methyl-2-oxo-1-{N-[4-(2-pyridyl)-piperidine-1-yl]propyl}carboxamido-1,2,3,6-tetrahydropyrimidine Dihydrochloride]

- melting point: 95 to 97 °C
SMILES: COC(=O)C1=C(C)N=C(C)N(CCCCCNCCCc2ccccc2)C1c1ccc(F)c(F)c1 (centres unmarked) (as salt: HCl) [Example 55, 6-(3,4-Difluorophenyl)-1,6-dihydro-5-methoxycarbonyl-2,4-dimethyl-1-(5-(3-phenylpropylamino)pentyl)-pyrimidine]

- melting point: 163 to 165 °C
SMILES: COC(=O)C1=C(C)N=C(C)N(CCCC(O)CN2CCC(c3ccccn3)CC2)C1c1ccc(F)c(F)c1 (single isomer, unassigned; (+)) (as salt: HCl) [Example 56, (+)-6-(3,4-Difluorophenyl)-1,6-dihydro-1-(4-hydroxy-5-(4-(2-pyridyl)piperidin-1-yl)pentyl)-5-methoxycarbonyl-2,4-dimethylpyrimidine]

- melting point: 137 to 140 °C
SMILES: COCC1=NC(C)=C(C(=O)OC)C(c2ccc(F)c(F)c2)N1CCCCCN1CCC(c2ccc(C)cc2)(c2ccccc2C)CC1 (centres unmarked) (as salt: HCl)

SMILES: COC(=O)C1=C(C)N=C(C)N(CCCCCN2CCC(C(=O)OC)(c3ccccc3)CC2)C1c1ccc(F)c(F)c1 (centres unmarked) (as salt: HCl) [Example 17, 6-(3,4-Difluorophenyl)-1,6-dihydro-5-methoxycarbonyl-1-(5-(4-methoxycarbonyl-4-phenylpiperidin-1-yl)-pentyl)-2,4-dimethylpyrimidine]
- melting point: 170 to 176 °C

- Ki (human α1D receptor): 575 nM
- Ki (human α1B receptor): 427 nM
- Ki (human α1A receptor): 0.288 nM
SMILES: COC(=O)C1=C(C)NC(=O)N(C(=O)NCCCN2CCC(c3ccccn3)CC2)C1c1ccc2nonc2c1 (centres unmarked) [Example 16, 6-(3,4-Benzofurazan-5-yl)-5-methoxycarbonyl-4-methyl-2-oxo-1-{N-[4-(2-pyridyl)-piperidin-1-yl]propyl}carboxamido-1,2,3,6-tetrahydropyrimidine Dihydrochloride]

SMILES: CCC1=C(C(N)=O)C(c2ccc(F)c(F)c2)N(C(=O)NCCCN2CCC(C(=O)OC)(c3ccccc3)CC2)C(=O)N1 (single isomer, unassigned; (+)) [Example 14, (+)-5-Carboxamido-6-(3,4-difluorophenyl)-4-ethyl-1-{N-[3-(4-methoxycarbonyl-4-phenylpiperidin-1-yl)propyl]}carboxamido-2-oxo-1,2,3,6-tetrhydropyrimidine]
- hα1d pKi (human α1D receptor): 6.46
- hα1b pKi (human α1B receptor): 6.59
- hα1a pKi (human α1A receptor): 9.68

- melting point: 157 to 159 °C
SMILES: COCC1=C(C(=O)OC)C(c2ccc(F)c(F)c2)N(C(=O)NCCCN2CCC(c3ccccc3)(c3cccs3)CC2)C(=O)N1 (centres unmarked)

- melting point: 53 to 57 °C
SMILES: COCN1C(C)=NC(C)=C(C(=O)NCCCN2CCC(C(=O)OC)(c3ccccc3)CC2)C1c1ccc(F)c(F)c1 (centres unmarked)

- melting point: 55 to 57 °C
SMILES: COC(=O)N1C(C)=NC(C)=C(C(=O)NCCCN2CCC(C(=O)OC)(c3ccccc3)CC2)C1c1ccc(F)c(F)c1 (centres unmarked)
